Experimental data published in patent US4321267A, “1-Substituted-4 (1H)-pyridinone hydrazones active against Giardia lamblia and Trichomonas vaginalis” (priority 1980, dated 1982).
Converted amounts (≈) assume the structure as drawn.

What was measured:
Giardia lamblia [1] = experiment: In vitro anti-Giardia lamblia activity (multiwell culture, viable count by hemacytometer, 24 h); type: cell-based; conditions: Giardia duodenalis, 50% inhibition of growth, 37° C., about 16-24 hours, anaerobic, read-out: Anti-G. lamblia ED50
Method: (§1) About 1.0-2.0 ml of a nutrient medium, for example, the modified Diamond's (TPS) medium at pH 7.05, together with about 10% by volume of heat-inactivated serum and about 1% by volume of an antibiotic-antimycoticmixture, is placed in each well of a multi-well plate. To this mixture, an aliquot of a suspension of G. lamblia cells containing about 10^6 organism is added. Subsequently, each well is inoculated with a known concentration of one of the pyridinone hydrazones, for example, 1-[(4-chlorophenyl)-4(1H)-pyridinone]-2-[(4-chlorophenyl)methylene]-hydrazone. The multiwell plate containing the individual culture samples is incubated under anaerobic conditions at about 37° C. for about 16-24 hours. The number of viable cells remaining in each well are then counted, such as with a hemocytometer. The percentage of survival is determined by comparison to controls incubated with DMSO (dimethylsulfoxide) and the effective concentration (in parts per million) for 50% inhibition of growth (ED50) is determined. It is established that the lower the ED50 the higher the activity of the 1-substituted-4-(1H)-pyridinone hydrazone tested.
(§2) In each well of a multiwell plate is placed 1.4 ml of Diamond's TPS medium (See Table II) at pH 7.05, 10% by volume of heat-inactivated fetal bovine serium, and 1% by volume of an antibiotic-antimycotic solution (see Table III). A suspension of Giardia lamblia is centrifuged at 2,500 xg for 6 minutes. The pelleted cells are resuspended in a small volume of Diamond's medium, the cells are counted and each well inoculated with approximately 10^6 organisms. A stock solution of 1-[(4-chlorophenyl)-4(1H)-pyridinone]-2-[(4-methylthiophenyl)-methylene]hydrazone in dimethylsulfoxide is made at a concentration of 150 μg/ml. The wells are then inoculated with various concentrations of the drug. The plates are incubated for 24 hours at 37° C. in an anaerobic Gas Pak jar. After 24 hours of incubation, each well is mixed and counted for viable organisms using a hemacytometer. The percentage of survival is determined by comparing the treated wells to controls treated with dimethylsulfoxide.

Trichomonas vaginalis [2] = experiment: In vitro anti-Trichomonas vaginalis activity (method of Example 1); type: cell-based, T. vaginalis 30001; conditions: for IC50: Trichomonas vaginalis, 37° C., 24 hours, read-out: Anti-T. vaginalis ED50; for activity against T. vaginalis (in words): method of Example 1
Method: as §1, §2
Employing the method of Example 1, centrifuged cells of T. vaginalis 30001 are incubated with 1-[(4-chlorophenyl)-4(1H)-pyridinone]-2-[(4-methylthiophenyl)methylene]hydrazone at 37° C. for 24 hours.

Giardia lamblia [3] = conditions: humans; cited from earlier work
[4] = humans; cited from earlier work
[5] = in animals; cited from earlier work
Trichomonas vaginalis [6] = conditions: humans; cited from earlier work

Row | Compound | IC50 (Giardia lamblia [1]) | IC50 (Trichomonas vaginalis [2]) | activity against T. vaginalis (in words) (Trichomonas vaginalis [2]) | treatment of giardiasis infection (Giardia lamblia [3]) | adverse side effects [4] | carcinogenicity [5] | therapy of trichomoniasis (Trichomonas vaginalis [6])
1 | Clc1ccc(C=NN=c2ccn(-c3ccc(Cl)cc3)cc2)cc1 [(1), 1-[(4-chlorophenyl)-4(1H)-pyridinone]-2-[(4-chlorophenyl)methylene]hydrazone] | 1.45 µg/mL (≈ 4.24 µM) | 2.63 µg/mL (≈ 7.68 µM) | active against T. vaginalis |  |  |  | 
2 | N#Cc1ccc(C=NN=c2ccn(-c3ccc(Cl)cc3)cc2)cc1 [(2), 1-[(4-chlorophenyl)-4(1H)-pyridinone]-2-[(4-cyanophenyl)methylene]hydrazone] | 2.25 µg/mL (≈ 6.76 µM) | 3.3 µg/mL (≈ 9.92 µM) | active against T. vaginalis |  |  |  | 
3 | CSc1ccc(C=NN=c2ccn(-c3ccc(Cl)cc3)cc2)cc1 [(3), 1-[(4-chlorophenyl)-4(1H)-pyridinone]-2-[(4-methylthiophenyl)methylene]hydrazone] | 1.1 µg/mL (≈ 3.11 µM) | 2.88 µg/mL (≈ 8.14 µM) | effective anti-T. vaginalis agent |  |  |  | 
4 | Clc1ccc(-n2ccc(=NN=Cc3ccc(Cl)c(Cl)c3)cc2)cc1 [(4), 1-[(4-chlorophenyl)-4(1H)-pyridinone]-2-[(3,4-dichlorophenyl)methylene]hydrazone] | 1.5 µg/mL (≈ 3.98 µM) | 3 µg/mL (≈ 7.96 µM) |  |  |  |  | 
5 | FC(F)(F)c1ccc(C=NN=c2ccn(-c3ccc(Cl)cc3)cc2)cc1 [(5), 1-[(4-chlorophenyl)-4(1H)-pyridinone]-2-[(4-trifluoromethylphenyl)methylene]hydrazone] | 1.42 µg/mL (≈ 3.78 µM) | 3.25 µg/mL (≈ 8.65 µM) |  |  |  |  | 
6 | Clc1ccc(-n2ccc(=NN=Cc3ccc(Br)cc3)cc2)cc1 [(6), 1-[(4-chlorophenyl)-4(1H)-pyridinone]-2-[(4-bromophenyl)methylene]hydrazone] | 1.25 µg/mL (≈ 3.23 µM) | 3.63 µg/mL (≈ 9.39 µM) |  |  |  |  | 
7 | Clc1ccc(-n2ccc(=NN=Cc3ccc(Cl)cc3Cl)cc2)cc1 [(7)] | 1.2 µg/mL (≈ 3.19 µM) | 1.75 µg/mL (≈ 4.65 µM) |  |  |  |  | 
8 | Fc1ccc(C=NN=c2ccn(-c3ccc(Cl)cc3)cc2)cc1 [(8), 1-[(4-chlorophenyl)-4(1H)-pyridinone]-2-[(4-fluorophenyl)methylene]hydrazone] | 2.25 µg/mL (≈ 6.91 µM) | 4 µg/mL (≈ 12.3 µM) |  |  |  |  | 
9 | CCN(CC)CCCC(C)Nc1c2ccc(Cl)cc2nc2ccc(OC)cc12 (stereo not drawn) [Atabrine] |  |  |  | successfully treated |  |  | 
10 | O=C1OCCN1/N=C/c1ccc([N+](=O)[O-])o1 [furazolidone] |  |  |  | successfully treated | adverse side effects |  | 
11 | Cc1ncc([N+](=O)[O-])n1CCO [metronidazole] | 6.2 µg/mL (≈ 36.2 µM) | < 1 µg/mL |  | successfully treated |  | carcinogenic in animals | Successful therapy of trichomoniasis
